According to PMC9299836 (eLife, 2022):
Several values for one entry are separate records, joined by “and”; a condition that tells them apart may be missing. Equal values may be shown once.

What was measured:
[1] = target: mGluR2 (Mus musculus, UniProt Q14BI2, A548F); experiment: Live-cell FRET, azi-CRD (cysteine-rich domain) sensor in HEK293T cells; conditions: glutamate + 10μM BINA, maximal response normalized to 1mM glutamate
[2] = target: mGluR2 (Mus musculus, UniProt Q14BI2); experiment: Live-cell FRET, SNAP-m2 (VFT domain) inter-subunit sensor in HEK293T cells; conditions: for SNAP-m2 FRET response (PAM DRC): individual cells, normalized to 1mM glutamate;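 as to all read-outs here: apparent FRET efficiency from whole-membrane ROIs of single cells, corrected for donor bleed-through and background, ΔFRET as treatment minus pretreatment signal, recorded at room temperature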
Sequence of mGluR2 (Mus musculus, UniProt Q14BI2) (Q14BI2 19-872): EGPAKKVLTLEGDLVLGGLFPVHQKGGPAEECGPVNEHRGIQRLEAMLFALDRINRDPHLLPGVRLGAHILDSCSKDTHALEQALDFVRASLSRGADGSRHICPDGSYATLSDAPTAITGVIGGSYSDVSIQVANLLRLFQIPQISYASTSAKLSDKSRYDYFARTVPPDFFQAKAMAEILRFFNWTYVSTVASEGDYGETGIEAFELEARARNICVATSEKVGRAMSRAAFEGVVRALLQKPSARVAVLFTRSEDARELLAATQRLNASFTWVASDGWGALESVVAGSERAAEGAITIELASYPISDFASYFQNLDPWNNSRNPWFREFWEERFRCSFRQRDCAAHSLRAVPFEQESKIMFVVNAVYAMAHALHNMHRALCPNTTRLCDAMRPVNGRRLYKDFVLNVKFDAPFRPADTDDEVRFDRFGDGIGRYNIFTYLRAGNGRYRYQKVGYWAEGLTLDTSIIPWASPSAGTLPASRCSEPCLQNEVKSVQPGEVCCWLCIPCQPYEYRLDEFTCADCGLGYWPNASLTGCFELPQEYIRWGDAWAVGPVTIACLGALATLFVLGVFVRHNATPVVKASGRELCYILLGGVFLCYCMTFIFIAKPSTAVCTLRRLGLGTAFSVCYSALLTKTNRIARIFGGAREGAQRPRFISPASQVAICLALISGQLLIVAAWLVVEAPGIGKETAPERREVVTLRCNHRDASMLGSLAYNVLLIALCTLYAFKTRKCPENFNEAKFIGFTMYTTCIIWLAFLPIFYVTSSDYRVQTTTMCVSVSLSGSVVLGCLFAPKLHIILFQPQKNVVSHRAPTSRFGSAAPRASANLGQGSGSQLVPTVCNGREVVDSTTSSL

[3] = target: mGluR2 (Mus musculus, UniProt Q14BI2, INS715F); experiment: Live-cell FRET, azi-ECL2 (7TM domain, extracellular loop 2) sensor in HEK293T cells; conditions: for Mean normalized azi-ECL2 FRET response: glutamate + 10μM modulator, maximal response normalized to 1mM glutamate;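 as to all read-outs here: Cy3/Cy5 click-labeled sensor, whole-membrane ROIs per cell, apparent FRET after bleed-through correction, ΔFRET as treatment minus pre-treatment signal, at room temperature, at least three biological replicates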
Sequence of mGluR2 (Mus musculus, UniProt Q14BI2, INS715F) (Q14BI2 with tags, fused parts or gaps INS715F): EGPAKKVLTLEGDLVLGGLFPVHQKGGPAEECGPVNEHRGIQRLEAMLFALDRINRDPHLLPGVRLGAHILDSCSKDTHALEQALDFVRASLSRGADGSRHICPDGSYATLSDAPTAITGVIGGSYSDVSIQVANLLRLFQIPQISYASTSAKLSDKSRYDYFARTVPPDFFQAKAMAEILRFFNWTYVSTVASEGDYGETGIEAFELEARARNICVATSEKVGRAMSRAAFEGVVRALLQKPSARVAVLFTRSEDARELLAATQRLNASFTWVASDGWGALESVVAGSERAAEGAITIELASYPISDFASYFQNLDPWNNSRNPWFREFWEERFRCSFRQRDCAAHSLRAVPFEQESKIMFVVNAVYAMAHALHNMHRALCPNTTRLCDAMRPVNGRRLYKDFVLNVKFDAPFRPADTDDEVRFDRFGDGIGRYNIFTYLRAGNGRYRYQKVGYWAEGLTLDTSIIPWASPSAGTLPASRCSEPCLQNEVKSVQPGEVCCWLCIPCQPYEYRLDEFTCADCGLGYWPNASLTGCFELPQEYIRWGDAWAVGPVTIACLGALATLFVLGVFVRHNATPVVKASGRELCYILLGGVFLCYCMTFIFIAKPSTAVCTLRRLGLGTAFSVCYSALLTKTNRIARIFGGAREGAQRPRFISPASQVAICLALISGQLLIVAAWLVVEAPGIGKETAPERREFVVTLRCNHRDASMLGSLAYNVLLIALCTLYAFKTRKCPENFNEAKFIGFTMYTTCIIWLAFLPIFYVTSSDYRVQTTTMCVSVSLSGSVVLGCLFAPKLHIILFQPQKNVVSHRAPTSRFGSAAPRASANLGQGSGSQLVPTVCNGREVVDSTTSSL

[4] = 10μM BINA, ([1 mM glutamate + modulator] - [1 mM glutamate]) × 100
[5] = Glutamate + 10μM BINA, log[Glutamate] (M) -5.82391
[6] = Glutamate + 10μM BINA, log[Glutamate] (M) -6.52288
[7] = Glutamate + 10μM BINA, log[Glutamate] (M) -7
[8] = Glutamate + 10μM BINA, log[Glutamate] (M) -7.30103
[9] = Glutamate + 10μM BINA, log[Glutamate] (M) -7.69897

Sequence of mGluR2 (Mus musculus, UniProt Q14BI2, A548F) (Q14BI2 19-872 A548F): as the sequence (Q14BI2 19-872) above, with A530F counted along it

Cc1c(OCc2cccc(-c3ccc(C(=O)O)cc3)c2)cc2c(c1C)C(=O)C(C1CCCC1)C2 (stereo not shown) [BINA]
Mean normalized FRET response, azi-CRD PAM DRC ([1]; log[Glutamate] (M) -7.69897): 0
Mean normalized FRET response, azi-CRD PAM DRC ([1]; log[Glutamate] (M) -8): 0
SNAP-m2 - ΔEfficacy, Mean ΔEfficacy [2, 4]: 2.381
SNAP-m2 - ΔEfficacy, individual cell responses ([2]; 10μM BINA, single cells): 2.679 and 0.7326 and 0.3738 and 4.211 and 3.017 and 2.268 and 3.39
SNAP-m2 FRET response (PAM DRC), Mean ([2]; Glutamate + 10μM BINA, log[Glutamate] (M) -3): -1.024
SNAP-m2 FRET response (PAM DRC), Mean ([2]; Glutamate + 10μM BINA, log[Glutamate] (M) -4.1549): -1.044
SNAP-m2 FRET response (PAM DRC), Mean ([2]; Glutamate + 10μM BINA, log[Glutamate] (M) -4.52288): -1.065
SNAP-m2 FRET response (PAM DRC), Mean ([2]; Glutamate + 10μM BINA, log[Glutamate] (M) -5): -1.035
SNAP-m2 FRET response (PAM DRC), Mean ([2]; Glutamate + 10μM BINA, log[Glutamate] (M) -5.39794): -0.9191
SNAP-m2 FRET response (PAM DRC) [2, 5]: -0.3851 and -0.8695 and -0.7127 and -0.7584 and -0.7474 and -0.9245 and -0.822 and -0.6977 and -0.989 and -0.9518 and -0.9499 and -0.2243 and -0.901 and -0.9622 and -1.01 and -0.9642 and -0.1942 and -0.3249 and -0.4164 and -0.506
SNAP-m2 FRET response (PAM DRC), Mean [2, 5]: -0.7275
SNAP-m2 FRET response (PAM DRC) [2, 6]: -0.06795 and -0.4149 and -0.3185 and -0.3338 and -0.3365 and -0.4306 and -0.3984 and -0.3309 and -0.4302 and -0.4616 and -0.4969 and -0.03041 and -0.4566 and -0.4789 and -0.4597 and -0.5155 and -0.05296 and -0.06597 and -0.09807 and -0.1208 and -0.3936 and -0.2233 and -0.4059
SNAP-m2 FRET response (PAM DRC), Mean [2, 6]: -0.3184
SNAP-m2 FRET response (PAM DRC) [2, 7]: -0.0453 and -0.1707 and -0.1814 and -0.1137 and 0 (10×) and -0.1874 and -0.2505 and -0.1579 and -0.1949 and -0.1703
SNAP-m2 FRET response (PAM DRC), Mean [2, 7]: -0.07748
SNAP-m2 FRET response (PAM DRC) [2, 8]: 0 (16×) and -0.1321 and -0.1145 and -0.02457
SNAP-m2 FRET response (PAM DRC), Mean [2, 8]: -0.01427
SNAP-m2 FRET response (PAM DRC) [2, 9]: 0
SNAP-m2 FRET response (PAM DRC), Mean [2, 9]: 0
Mean max response (normalized max ΔFRET) ([2]; SNAP-m2, 1 mM glutamate + 10 μM modulator, normalized to 1 mM glutamate): 1.02
Mean ΔPotency ([2]; SNAP-m2, 10μM modulator, (([modulator + glutamate]EC50 – [glutamate] EC50)/[glutamate] EC50) × 100): -89.602
Mean ΔEfficacy ([2]; SNAP-m2, 10μM modulator, ([1 mM glutamate + modulator] - [1 mM glutamate]) × 100): 2.381
Hill slope of glutamate titration ([2]; SNAP-m2 sensor, + 10 μM modulator): –1.24
Live-cell FRET max response normalized to 1mM glutamate ([2]; SNAP-m2 sensor, Glutamate + 10μM BINA, individual values (N=7)): 1.03 and 1.023 and 1.0339 and 1.027 and 1.007 and 1.004 and 1.042
azi-ECL2 - ΔEfficacy, Mean ΔEfficacy [3, 4]: 42.1338
Mean ΔPotency ([3]; 10μM modulator, (([modulator + glutamate]EC50 – [glutamate] EC50)/[glutamate] EC50) × 100): -51.0252
ΔPotency, individual cell responses ([3]; 10μM modulator, single cells, (([modulator + glutamate]EC50 – [glutamate] EC50)/[glutamate] EC50) × 100): -59.4349 and -64.4751 and -43.9117 and -59.7874 and -53.4508 and -10.4259 and -42.6395 and -39.4154 and -48.6344 and -48.1424 and -33.877 and -32.3399 and -71.1589 and -70.5942 and -70.1728 and -67.9438
ΔEfficacy, individual cell responses ([3]; 10μM modulator, single cells, ([1 mM glutamate + modulator] - [1 mM glutamate]) × 100): 29.3333 and 34.3873 and 67.0103 and 45.1311 and 54.8496 and 47.8253 and 100.958 and 52.7779 and 75.0355 and 26.9064 and 8.621 and 25.7313 and 7.026 and 14.2809
Mean max response (normalized max ΔFRET) ([3]; azi-ECL2, 1 mM glutamate + 10 μM modulator, normalized to 1 mM glutamate): 1.42
Hill slope of glutamate titration ([3]; azi-ECL2 sensor, + 10 μM modulator): 1.06
Mean normalized azi-ECL2 FRET response ([3]; log[Glutamate] (M) -3): 1.421
Mean normalized azi-ECL2 FRET response ([3]; log[Glutamate] (M) -4.1549): 1.469
Mean normalized azi-ECL2 FRET response ([3]; log[Glutamate] (M) -4.52288): 1.344
Mean normalized azi-ECL2 FRET response ([3]; log[Glutamate] (M) -5): 1.155
Mean normalized azi-ECL2 FRET response ([3]; log[Glutamate] (M) -5.39794): 0.8858
Mean normalized azi-ECL2 FRET response ([3]; log[Glutamate] (M) -5.82391): 0.584
Mean normalized azi-ECL2 FRET response ([3]; log[Glutamate] (M) -6.52288): 0.1491
Mean normalized azi-ECL2 FRET response ([3]; log[Glutamate] (M) -7): 0.03109
Mean normalized azi-ECL2 FRET response ([3]; log[Glutamate] (M) -7.30103): 0.00416
Mean normalized azi-ECL2 FRET response ([3]; log[Glutamate] (M) -7.69897): 0
